Experimental data as given in patent US6048882A, “Prophylactic and therapeutic agent for hepatic diseases” (Nisshin Flour Milling Co., Ltd., priority 1995, dated 2000).
Structures can show the parent of a compound that is named as a salt. Where two headings read alike, the source gives them in different places.

Key:
[1] = tested on: experimental hepatopathy models prepared by D-galactosamine administration; test: Inhibitory action on hepatopathy in hepatopathy models by D-galactosamine (serum GPT and GOT); format: in vivo, Wistar strain male mice; conditions: iv, 24 h, 2 hours after D-galactosamine; for inhibition in vivo at 0.03 mg/kg / inhibition in vivo at 0.01 mg/kg: lipid emulsion, i.v.; for inhibition in vivo at 0.03 mg/kg: dose 30 μg/kg; for inhibition in vivo at 0.01 mg/kg: dose 10 μg/kg; for inhibition in vivo at 3 mg/kg: dissolved in distilled water, dose 3000 μg/kg
Description: In these tests, GPT (glutamic-pyruvic transaminase) and GOT (glutamic-oxaloacetic transaminase) were determined using kits for the determination of GPT and GOT upon the method by U. Lippi et al., Iatrozyme TA-Lq (available from Iatron Laboratories Inc.), wherein the NADH formed when enzymes act upon substrates can reduce nitrotetrazolium blue (NTB) via 1-methoxy-5-methylphenazinium methylsulfate (1-methoxy PMS) to form formazan, which is then subjected to colorimetric analysis at a wavelength of 560 nm.
Inhibitory action of lipid emulsions containing the present isoprenylamine derivatives was evaluated by inhibition rates of GPT and GOT in experimental hepatopathy models prepared by D-galactosamine administration.
The experimental hepatopathy model was prepared by intraperitoneal administration of D-galactosamine at 400 mg/kg to Wistar strain male […] weighing about 170 g. The present isoprenylamine derivative was formulated to a lipid emulsion according to the method described in Pharmaceutical Example 8, and was intravenously administered at a dose of 10-30 μg/kg 2 hours after the administration of D-galactosamine.
24 hours after the D-galactosamine administration, blood samples were collected form animals under ether anesthesia and centrifuged. Then, serum GPT and GOT were determined and the respective inhibition rates were calculated on the bases of the serum GPT and GOT values obtained when the present isoprenylamine derivatives were not administered being defined as 100, respectively.
For comparison, glycyrrhizin ammonium (Tokyo Kasei Co.) dissolved in distilled water was administered in a similar manner to that for the isoprenylamine derivatives, blood sampling and determination were conducted and the serum GPT and GOT inhibition rates were calculated.

[2] = tested on: experimental hepatopathy models prepared by administering carbon tetrachloride; test: Inhibitory action on hepatopathy in hepatopathy models by carbon tetrachloride (lipid emulsion; serum GPT and GOT); format: in vivo, ddY strain male mice; conditions: Mus musculus, iv, 20 h, i.v., one hour before carbon tetrachloride; for inhibition in vivo at 0.001 mg/kg: dose 1 μg/kg; for inhibition in vivo at 0.0001 mg/kg: dose 0.1 μg/kg; for inhibition in vivo at 0.01 mg/kg: dose 10 μg/kg
Description: Carbon tetrachloride was diluted with olive oil to a concentration of 0.5% when administered. The present isoprenylamine derivatives were formulated into the lipid emulsions according to the method described in Pharmaceutical Example 8 and intravenously administered at a dose of 0.1-10 μg/kg one hour before the administration of carbon tetrachloride. 20 hours after the administration of carbon tetrachloride, blood samples were collected from animals under ether anesthesia and centrifuged. Then, serum GPT and GOT were determined and the respective inhibition rates were calculated on the bases of the serum GPT and GOT values obtained when the present isoprenylamine derivative was not administered being defined as 100, respectively.

SMILES: CC(C)=CCC/C(C)=C/CC/C(C)=C/CC/C(C)=C/CC/C(C)=C/CC/C(C)=C/CC/C(C)=C/CC/C(C)=C/CC/C(C)=C/CNCc1ccco1 [Compound 24, N-solanesyl-2-furfurylamine hydrochloride]
- inhibition in vivo at 0.03 mg/kg ([1]; read-out: GOT inhibition): 30%
- inhibition in vivo at 0.03 mg/kg ([1]; read-out: GPT inhibition): 25%

SMILES: CC(C)=CCC/C(C)=C/CC/C(C)=C/CC/C(C)=C/CC/C(C)=C/CC/C(C)=C/CC/C(C)=C/CC/C(C)=C/CNCc1ccc2c(c1)OCO2 [Compound 5, N-farnesylfarnesylgeranylpiperonylamine hydrochloride]
- inhibition in vivo at 0.01 mg/kg ([1]; read-out: GOT inhibition): 29%
- inhibition in vivo at 0.01 mg/kg ([1]; read-out: GPT inhibition): 27%

SMILES: CC(C)=CCC/C(C)=C/CC/C(C)=C/CC/C(C)=C/CC/C(C)=C/CC/C(C)=C/CC/C(C)=C/CC/C(C)=C/CC/C(C)=C/CNCCc1ccc2c(c1)OCO2 [Compound 17, N-Solanesyl-2-(3,4-methylenedioxyphenyl)ethylamine Hydrochloride]
- inhibition in vivo at 0.03 mg/kg ([1]; read-out: GOT inhibition): 24%
- inhibition in vivo at 0.03 mg/kg ([1]; read-out: GPT inhibition): 23%

SMILES: CC(C)=CCC/C(C)=C/CC/C(C)=C/CC/C(C)=C/CC/C(C)=C/CNCc1ccc2c(c1)OCO2 [Compound 2, N-farnesylgeranylpiperonylamine hydrochloride]
- inhibition in vivo at 0.01 mg/kg ([1]; read-out: GOT inhibition): 23%
- inhibition in vivo at 0.01 mg/kg ([1]; read-out: GPT inhibition): 23%

SMILES: CC(C)=CCC/C(C)=C/CC/C(C)=C/CC/C(C)=C/CC/C(C)=C/CC/C(C)=C/CC/C(C)=C/CC/C(C)=C/CC/C(C)=C/CNCc1ccccc1 [Compound 7, N-solanesylbenzylamine hydrochloride]
- inhibition in vivo at 0.001 mg/kg ([2]; read-out: GOT inhibition): 42%
- inhibition in vivo at 0.001 mg/kg ([2]; read-out: GPT inhibition): 42%

SMILES: COc1ccc(CNC/C=C(\C)CC/C=C(\C)CC/C=C(\C)CC/C=C(\C)CC/C=C(\C)CC/C=C(\C)CC/C=C(\C)CC/C=C(\C)CCC=C(C)C)cc1OC [Compound 13, N-solanesylveratrylamine hydrochloride]
- inhibition in vivo at 0.0001 mg/kg ([2]; read-out: GOT inhibition): 14%
- inhibition in vivo at 0.0001 mg/kg ([2]; read-out: GPT inhibition): 21%

SMILES: COc1c(C)c(CNC/C=C(\C)CC/C=C(\C)CC/C=C(\C)CC/C=C(\C)CC/C=C(\C)CC/C=C(\C)CC/C=C(\C)CC/C=C(\C)CCC=C(C)C)c(OC)c(OC)c1OC [Compound 14, N-solanesyl-2,3,4,5-tetramethoxy-6-methylbenzylamine hydrochloride]
- inhibition in vivo at 0.03 mg/kg ([1]; read-out: GOT inhibition): 55%
- inhibition in vivo at 0.03 mg/kg ([1]; read-out: GPT inhibition): 64%

SMILES: CC1(C)[C@@H](O[C@H]2O[C@H](C(=O)O)[C@@H](O)[C@H](O)[C@H]2O[C@@H]2O[C@H](C(=O)O)[C@@H](O)[C@H](O)[C@H]2O)CC[C@]2(C)[C@H]3C(=O)C=C4[C@@H]5C[C@@](C)(C(=O)O)CC[C@]5(C)CC[C@@]4(C)[C@]3(C)CC[C@@H]12 [Glycyrrhizin ammonium, glycyrrhizin ammonium, reference compound]
- inhibition in vivo at 3 mg/kg ([1]; read-out: GOT inhibition): 22%
- inhibition in vivo at 3 mg/kg ([1]; read-out: GPT inhibition): 25%

SMILES: CC(C)=CCC/C(C)=C/CC/C(C)=C/CC/C(C)=C/CC/C(C)=C/CC/C(C)=C/CC/C(C)=C/CC/C(C)=C/CC/C(C)=C/CNCc1ccc(O)cc1 [Compound 8, N-solanesyl-4-hydroxybenzylamine hydrochloride]
- inhibition in vivo at 0.01 mg/kg ([2]; read-out: GOT inhibition): 25%
- inhibition in vivo at 0.01 mg/kg ([2]; read-out: GPT inhibition): 22%

SMILES: CC(C)=CCC/C(C)=C/CC/C(C)=C/CC/C(C)=C/CC/C(C)=C/CC/C(C)=C/CC/C(C)=C/CC/C(C)=C/CC/C(C)=C/CNCc1cccs1 [Compound 25, N-solanesyl-2-thienylamine hydrochloride]
- inhibition in vivo at 0.03 mg/kg ([1]; read-out: GOT inhibition): 32%
- inhibition in vivo at 0.03 mg/kg ([1]; read-out: GPT inhibition): 30%

SMILES: CC(C)=CCC/C(C)=C/CC/C(C)=C/CC/C(C)=C/CC/C(C)=C/CC/C(C)=C/CC/C(C)=C/CC/C(C)=C/CC/C(C)=C/CNCc1cccnc1 [Compound 26, N-solanesyl-3-pyridylmethylamine dihydrochloride]
- inhibition in vivo at 0.03 mg/kg ([1]; read-out: GOT inhibition): 40%
- inhibition in vivo at 0.03 mg/kg ([1]; read-out: GPT inhibition): 35%

SMILES: CC(C)=CCC/C(C)=C/CC/C(C)=C/CC/C(C)=C/CC/C(C)=C/CC/C(C)=C/CC/C(C)=C/CC/C(C)=C/CC/C(C)=C/CNCc1ccc(Cl)cc1 [Compound 9, N-solanesyl-4-chlorobenzylamine hydrochloride]
- inhibition in vivo at 0.03 mg/kg ([1]; read-out: GOT inhibition): 47%
- inhibition in vivo at 0.03 mg/kg ([1]; read-out: GPT inhibition): 53%

SMILES: CC(C)=CCC/C(C)=C/CC/C(C)=C/CC/C(C)=C/CC/C(C)=C/CC/C(C)=C/CC/C(C)=C/CC/C(C)=C/CC/C(C)=C/CN(C)Cc1ccc2c(c1)OCO2 [Compound 19, N-methyl-N-solanesylpiperonylamine]
- inhibition in vivo at 0.001 mg/kg ([2]; read-out: GOT inhibition): 43%
- inhibition in vivo at 0.001 mg/kg ([2]; read-out: GPT inhibition): 31%

SMILES: CC(C)=CCC/C(C)=C/CC/C(C)=C/CC/C(C)=C/CC/C(C)=C/CC/C(C)=C/CC/C(C)=C/CNCc1ccc2c(c1)OCO2 [Compound 4, N-farnesylgeranylgeranylpiperonylamine hydrochloride]
- inhibition in vivo at 0.01 mg/kg ([1]; read-out: GOT inhibition): 31%
- inhibition in vivo at 0.01 mg/kg ([1]; read-out: GPT inhibition): 30%
- inhibition in vivo at 0.001 mg/kg ([2]; read-out: GOT inhibition): 28%
- inhibition in vivo at 0.001 mg/kg ([2]; read-out: GPT inhibition): 22%

SMILES: CC(C)=CCC/C(C)=C/CC/C(C)=C/CC/C(C)=C/CC/C(C)=C/CC/C(C)=C/CC/C(C)=C/CC/C(C)=C/CC/C(C)=C/CC/C(C)=C/CC/C(C)=C/CNCc1ccc2c(c1)OCO2 [Compound 21, N-undecaprenylpiperonylamine hydrochloride]
- inhibition in vivo at 0.001 mg/kg ([2]; read-out: GOT inhibition): 38%
- inhibition in vivo at 0.001 mg/kg ([2]; read-out: GPT inhibition): 33%

SMILES: CC(C)=CCC/C(C)=C/CC/C(C)=C/CC/C(C)=C/CC/C(C)=C/CC/C(C)=C/CC/C(C)=C/CC/C(C)=C/CC/C(C)=C/CNCc1ccc(O)c(O)c1 [Compound 11, N-solanesyl-3,4-dihydroxybenzylamine hydrochloride]
- inhibition in vivo at 0.03 mg/kg ([1]; read-out: GOT inhibition): 41%
- inhibition in vivo at 0.03 mg/kg ([1]; read-out: GPT inhibition): 55%

SMILES: CC(C)=CCC/C(C)=C/CC/C(C)=C/CC/C(C)=C/CC/C(C)=C/CC/C(C)=C/CNCc1ccc2c(c1)OCO2 [Compound 3, N-farnesylfarnesylpiperonylamine hydrochloride]
- inhibition in vivo at 0.01 mg/kg ([1]; read-out: GOT inhibition): 21%
- inhibition in vivo at 0.01 mg/kg ([1]; read-out: GPT inhibition): 20%

SMILES: CC(C)=CCC/C(C)=C/CC/C(C)=C/CC/C(C)=C/CNCc1ccc2c(c1)OCO2 [Compound 1, N-geranylgeranylpiperonylamine hydrochloride]
- inhibition in vivo at 0.001 mg/kg ([2]; read-out: GOT inhibition): 13%
- inhibition in vivo at 0.001 mg/kg ([2]; read-out: GPT inhibition): 21%

SMILES: CC(C)=CCC/C(C)=C/CC/C(C)=C/CC/C(C)=C/CC/C(C)=C/CC/C(C)=C/CC/C(C)=C/CC/C(C)=C/CC/C(C)=C/CNCc1ccc(C)cc1 [Compound 10, N-solanesyl-4-methylbenzylamine hydrochloride]
- inhibition in vivo at 0.03 mg/kg ([1]; read-out: GOT inhibition): 54%
- inhibition in vivo at 0.03 mg/kg ([1]; read-out: GPT inhibition): 63%

SMILES: CC(C)=CCC/C(C)=C/CC/C(C)=C/CC/C(C)=C/CC/C(C)=C/CC/C(C)=C/CC/C(C)=C/CC/C(C)=C/CC/C(C)=C/CNc1ccc2c(c1)OCO2 [Compound 16, N-solanesyl-(3,4-methylenedioxy)aniline hydrochloride]
- inhibition in vivo at 0.03 mg/kg ([1]; read-out: GOT inhibition): 48%
- inhibition in vivo at 0.03 mg/kg ([1]; read-out: GPT inhibition): 43%

SMILES: CC(C)=CCC/C(C)=C/CC/C(C)=C/CC/C(C)=C/CC/C(C)=C/CC/C(C)=C/CC/C(C)=C/CC/C(C)=C/CC/C(C)=C/CNCc1ccc2c(c1)OCO2 [Compound 15, N-solanesylpiperonylamine malate]
- inhibition in vivo at 0.01 mg/kg ([2]; read-out: GOT inhibition): 18%
- inhibition in vivo at 0.01 mg/kg ([2]; read-out: GPT inhibition): 24%

SMILES: COc1cc(CNC/C=C(\C)CC/C=C(\C)CC/C=C(\C)CC/C=C(\C)CC/C=C(\C)CC/C=C(\C)CC/C=C(\C)CC/C=C(\C)CCC=C(C)C)ccc1O [Compound 12, N-solanesyl-4-hydroxy-3-methoxybenzylamine hydrochloride]
- inhibition in vivo at 0.03 mg/kg ([1]; read-out: GOT inhibition): 42%
- inhibition in vivo at 0.03 mg/kg ([1]; read-out: GPT inhibition): 53%

SMILES: CC(C)=CCC/C(C)=C/CC/C(C)=C/CC/C(C)=C/CC/C(C)=C/CC/C(C)=C/CC/C(C)=C/CC/C(C)=C/CC/C(C)=C/CNCCCc1ccc2c(c1)OCO2 [Compound 18, N-solanesyl-3-(3,4-methylenedioxyphenyl)propylamine hydrochloride]
- inhibition in vivo at 0.03 mg/kg ([1]; read-out: GOT inhibition): 22%
- inhibition in vivo at 0.03 mg/kg ([1]; read-out: GPT inhibition): 20%
